Laboratory results as given in ChEMBL document CHEMBL4043266, “Pentacyclic triterpenes as α-glucosidase and α-amylase inhibitors: Structure-activity relationships and the synergism with acarbose” (Bioorg Med Chem Lett, 2017).

Experiments:
[1] = molecular target: T1, Pancreatic alpha-amylase (Sus scrofa, UniProt P00690); test: Inhibition of porcine pancreatic alpha-amylase using starch as substrate preincubated for 15 mins followed by substrate addition measured after 10 mins by dinitrosalicylic acid reagent based assay
T1 sequence (P00690 whole entry): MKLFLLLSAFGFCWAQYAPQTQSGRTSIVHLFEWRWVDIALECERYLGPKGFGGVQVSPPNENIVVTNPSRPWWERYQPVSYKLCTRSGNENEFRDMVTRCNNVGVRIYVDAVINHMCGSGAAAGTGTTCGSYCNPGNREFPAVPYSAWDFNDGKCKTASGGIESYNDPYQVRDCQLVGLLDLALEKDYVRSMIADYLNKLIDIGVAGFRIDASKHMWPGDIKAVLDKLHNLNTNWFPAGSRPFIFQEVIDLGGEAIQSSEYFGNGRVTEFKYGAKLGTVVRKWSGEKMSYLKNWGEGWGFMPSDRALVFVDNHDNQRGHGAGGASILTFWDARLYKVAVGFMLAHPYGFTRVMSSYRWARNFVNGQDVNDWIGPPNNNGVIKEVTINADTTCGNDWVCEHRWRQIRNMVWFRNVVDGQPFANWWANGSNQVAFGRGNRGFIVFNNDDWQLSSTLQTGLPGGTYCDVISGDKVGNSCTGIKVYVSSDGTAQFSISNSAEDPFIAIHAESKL

[2] = Inhibition of yeast alpha-glucosidase using 4-nitrophenyl-alpha-D-glucopyranoside as substrate preincubated for 15 mins followed by substrate addition measured after 20 mins; design: species or system Saccharomyces cerevisiae

Row | IC50 [1] [µM] | IC50 [2] [µM] | Compound
1 | > 200 | 100 | C[C@H]1[C@H](C)CC[C@]2(C(=O)O)CC[C@]3(C)C(=CC[C@@H]4[C@@]5(C)C[C@@H](O)[C@H](O)[C@@](C)(CO)[C@@H]5CC[C@]43C)[C@H]12 [ASIATIC ACID]
2 |  | 12.1 | C[C@H]1[C@H](C)CC[C@]2(C(=O)O)CC[C@]3(C)C(=CC[C@@H]4[C@@]5(C)CC[C@H](O)C(C)(C)[C@@H]5CC[C@]43C)[C@H]12 [URSOLIC ACID]
3 | 31.2 | 17.2 | C[C@H]1[C@H](C)CC[C@]2(C(=O)O)CC[C@]3(C)C(=CC[C@@H]4[C@@]5(C)C[C@@H](O)[C@H](O)C(C)(C)[C@@H]5CC[C@]43C)[C@H]12 [COROSOLIC ACID]
4 | > 200 | > 200 | CC1(C)[C@@H](O[C@H]2O[C@H](C(=O)O)[C@@H](O)[C@H](O)[C@H]2O[C@@H]2O[C@H](C(=O)O)[C@@H](O)[C@H](O)[C@H]2O)CC[C@]2(C)[C@H]3C(=O)C=C4[C@@H]5C[C@@](C)(C(=O)O)CC[C@]5(C)CC[C@@]4(C)[C@]3(C)CC[C@@H]12 [GLYCYRRHIZIN]
5 |  | 2480 | C[C@H]1O[C@H](O[C@H]2[C@H](O)[C@@H](O)[C@@H](O[C@H]3[C@H](O)[C@@H](O)C(O)O[C@@H]3CO)O[C@@H]2CO)[C@H](O)[C@@H](O)[C@@H]1N[C@H]1C=C(CO)[C@@H](O)[C@H](O)[C@H]1O (some centres not stated) [ACARBOSE]

More lines, now with the values behind:

Row | Compound | IC50 [1] [µM] | IC50 [2] [µM]
6 | CC1(C)CC[C@]2(C(=O)O)CC[C@]3(C)C(=CC[C@@H]4[C@@]5(C)CC[C@H](O)C(C)(C)[C@@H]5CC[C@]43C)[C@@H]2C1 [OLEANOLIC_ACID] |  | 35.6
7 | C[C@H]1[C@H](C)CC[C@]2(C(=O)O[C@@H]3O[C@H](CO[C@@H]4O[C@H](CO)[C@@H](O[C@@H]5O[C@@H](C)[C@H](O)[C@@H](O)[C@H]5O)[C@H](O)[C@H]4O)[C@@H](O)[C@H](O)[C@H]3O)CC[C@]3(C)C(=CC[C@@H]4[C@@]5(C)C[C@@H](O)[C@H](O)[C@@](C)(CO)[C@@H]5CC[C@]43C)[C@H]12 | > 200 | > 200
8 | CC1(C)[C@@H](O)CC[C@]2(C)[C@H]3C(=O)C=C4[C@@H]5C[C@@](C)(C(=O)O)CC[C@]5(C)CC[C@@]4(C)[C@]3(C)CC[C@@H]12 [ENOXOLONE] | > 200 | > 200
9 | C=C(C)[C@@H]1CC[C@]2(CO)CC[C@]3(C)[C@H](CC[C@@H]4[C@@]5(C)CC[C@H](O)C(C)(C)[C@@H]5CC[C@]43C)[C@@H]12 [BETULIN] | > 200 | 52.5
10 | C=C(C)[C@@H]1CC[C@]2(C(=O)O)CC[C@]3(C)[C@H](CC[C@@H]4[C@@]5(C)CC[C@H](O)C(C)(C)[C@@H]5CC[C@]43C)[C@@H]12 [BETULINIC ACID] | > 200 | 14.9
